Test results taken from article PMC8955265, “Systematic Discovery of FBXW7-Binding Phosphodegrons Highlights Mitogen-Activated Protein Kinases as Important Regulators of Intracellular Protein Levels” (International Journal of Molecular Sciences, 2022).
Where a SMILES comes first, the peptide text is derived from it. [ ]: non-standard residue; d: D form. The star is where a group is joined. 5FAM = O=C1OC2(c3ccc(O)cc3Oc3cc(O)ccc32)c2ccc(C(=O)*)cc21; pT = C[C@@H](OP(=O)(O)O)[C@H](N)C(=O)O; pS = N[C@@H](COP(=O)(O)O)C(=O)O

Assays:
[1] = test system: FBXW7-mediated protein degradation; experiment: Ratiometric DsRed/EGFP protein level assay of full-length proteins with kinase inhibitors; type: cell-based, HEK293T cells; conditions: 6 h
Method: (§1) HEK293T cells (purchased from ATCC, CRL-3216) were cultured in Dulbecco’s Modified Eagle’s Medium (DMEM, Gibco, Waltham, MA, USA) containing 10% FBS (Gibco, Cat# 10500064), 100 µg/mL Pen/strep (Sigma, P0781) and Amphotericin B (Thermo Fisher, 15290026) at 37 °C in an atmosphere of 5% CO2. Approximately 90,000 cells were plated in 24-well Greiner bio-one plates (#662-160). The next day cells were transfected with Lipofectamine 3000 reagent (L3000001, Invitrogen, Waltham, MA, USA) using the Opti-MEM reduced serum media (Gibco, 31985062). The transfection media was changed with complete DMEM after 4–6 h of transfection. Cells in a 24-well plate were transfected with 500 ng of plasmid DNA in total, for co-transfection each plasmid construct was used in 250 ng amount. For western blots, cells were washed in ice-cold PBS and harvested in SDS loading buffer and then subjected to SDS-PAGE. The samples were then transferred to nitrocellulose membrane. Primary antibodies were the following: Anti-V5 (Invitrogen; 1:5000 dilution), anti-FLAG (Sigma #F1804; 1:5000 dilution), anti-cMyc (#2276, Cell signaling, Danvers, MA, USA) 1:1000 dilution) and anti-tubulin (Sigma #T6199; 1:50,000 dilution). Secondary antibodies (IRDye® 800CW Goat anti-Mouse IgG, LiCOR #926-32210 and IRDye® 680CW Goat anti-Mouse IgG, LiCOR #926-68070; 1:5000 dilution) were used according to the recommendation of the manufacturer and blots were analyzed by Odyssey CLx imaging system (Li-Cor). Kinase inhibitors were used in 2 µM concentration added 6 h before protein level measurements: GSK3—CHR99021 (#S2924, Selleckchem, Munich, Germany), ERK1/2—SCH772984 (Selleckchem, #S7101), p38—SB202190 (Sigma-Aldrich, #S7067), and JNK—JNK-IN-8 (Selleckchem, #S4901). MG132 proteosomal inhibitor (Merck, #474790) was used in 10 µM concentration and cycloheximide (# 239763, Calbiochem, San Diego, CA, USA) was used in 100 µg/mL concentration. HEK293T cells were washed with 500 μL ice-cold PBS twice and gently collected using a pipette 48 h after transfection. The suspension was centrifuged at 500× g for 10 min at 4 °C. After centrifugation, the cell pellet was resuspended in 110 µL ice cold PBS and the fluorescence signal for EGFP (Excitation 485 nm; Emission 515 nm) and DsRed (Excitation 550 nm; Emission 580 nm) was measured in Corning 384-well microplate (#4514) using a plate reader (CytationTM 3, BioTek Instruments, Winooski, VT, USA).

[2] = test system: FBXW7-mediated protein degradation; experiment: Western blot of protein levels in FBXW7-transfected cells; type: cell-based, HEK293T cells; conditions: HEK293T co-transfected with Fusion WT and FBXW7, inhibitor 2 µM, anti-Myc western blot
Method: as §1, with “concentration.” for “concentration. HEK293T cells were washed with 500 μL ice-cold PBS twice and gently collected using a pipette 48 h after transfection. The suspension was centrifuged at 500× g for 10 min at 4 °C. After centrifugation, the cell pellet was resuspended in 110 µL ice cold PBS and the fluorescence signal for EGFP (Excitation 485 nm; Emission 515 nm) and DsRed (Excitation 550 nm; Emission 580 nm) was measured in Corning 384-well microplate (#4514) using a plate reader (CytationTM 3, BioTek Instruments, Winooski, VT, USA).”

[3] = biological target: T1, Skp1-FBXW7 complex (Homo sapiens, UniProt P63208+Q969H0); experiment: Fluorescence polarization direct titration of labeled CCNE peptide; type: binding; conditions: FP direct titration, 50 nM CF-labeled CCNE peptide with increasing Skp1-FBXW7; 20 mM Tris pH 8.0, 100 mM NaCl, 0.05% Brij35P, 2 mM TCEP; value printed in plot
T1 construct: human FBXW7 (263-707) with an N-terminal hexa-histidine (His6) tag; His6 (N, cleaved yes); made in house; host or cells: E. coli Rosetta (DE3)
T1 sequence (Q969H0 263-707): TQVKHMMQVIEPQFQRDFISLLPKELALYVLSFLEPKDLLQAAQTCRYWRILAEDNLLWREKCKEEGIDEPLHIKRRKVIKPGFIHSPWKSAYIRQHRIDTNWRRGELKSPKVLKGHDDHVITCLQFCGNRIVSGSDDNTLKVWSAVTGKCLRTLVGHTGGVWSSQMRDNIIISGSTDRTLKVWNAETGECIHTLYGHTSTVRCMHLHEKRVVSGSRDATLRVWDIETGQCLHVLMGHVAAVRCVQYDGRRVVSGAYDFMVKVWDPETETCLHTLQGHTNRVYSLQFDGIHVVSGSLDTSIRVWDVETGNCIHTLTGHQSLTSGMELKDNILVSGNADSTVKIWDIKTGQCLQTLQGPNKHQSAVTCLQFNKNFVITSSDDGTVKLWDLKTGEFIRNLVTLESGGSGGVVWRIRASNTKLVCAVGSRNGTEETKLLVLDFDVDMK
T1 sequence (P63208 1-149 partner limits assumed): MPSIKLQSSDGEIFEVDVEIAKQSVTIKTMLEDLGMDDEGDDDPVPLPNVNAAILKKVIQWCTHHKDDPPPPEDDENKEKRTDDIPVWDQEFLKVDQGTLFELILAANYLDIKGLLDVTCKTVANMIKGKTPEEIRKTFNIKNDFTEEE
Method: Truncated Skp1 (1-149) and human FBXW7 (263-707) with an N-terminal hexa-histidine (His6) tag were cloned into a bicistronic plasmid (pMG950) and were co-expressed in E. coli Rosetta (DE3) strain. The Skp1-FBXW7 complex was purified using affinity, anion exchange, and gel filtration chromatography. The DNA expression plasmid was transformed into E. coli Rosetta (DE3) strain and grown in LB until OD600 = 0.5, protein expression was induced with 100 µM isopropyl-β-d-1-thigalatopyaranoside (IPTG) overnight at 18 °C. The cell pellet was lysed, and the recombinant protein was purified using Ni-NTA agarose beads. Before further purification the His6-tag was removed by using the TEV protease and then the protein complex was further purified using anion exchange chromatography twice, first with a Resource Q and then with a Mono Q column (pH = 8). Finally, the complex was subjected to size-exclusion chromatography in 20 mM Tris, pH = 8, 150 mM NaCl, and 1 mM DTT using a Superdex200 10/300 column (GE Healthcare, Chicago, IL, USA). The eluted fractions were pooled together and were supplemented with 10% glycerol and 2 mM TCEP before concentration and storage. […]

Structure (SMILES)	degradation of JAZF1 ([1]; full-length JAZF1, HEK293T + FBXW7, inhibitor 2 µM)	ZMIZ1 level ([1]; full-length ZMIZ1, HEK293T + FBXW7, inhibitor 2 µM)	FBXW7-mediated degradation of the JAZF1-SUZ12 fusion construct [2]	Kd [3] [nM]
Oc1ccc(-c2nc(-c3ccncc3)c(-c3ccc(F)cc3)[nH]2)cc1 [SB202190]	lower	affected	counteracted	–
CC(C)C[C@H](NC(=O)CNC(=O)[C@H](CO)NC(=O)[C@@H]1CCCN1C(=O)c1ccc2c(c1)C(=O)OC21c2ccc(O)cc2Oc2cc(O)ccc21)C(=O)N[C@@H](CC(C)C)C(=O)N[C@H](C(=O)N1CCC[C@H]1C(=O)N1CCC[C@H]1C(=O)N[C@@H](CCC(N)=O)C(=O)N[C@@H](COP(=O)(O)O)C(=O)NCC(=O)N[C@@H](CCCCN)C(=O)N[C@@H](CCCCN)C(=O)N[C@@H](CCC(N)=O)C(=O)O)[C@@H](C)OP(=O)(O)O [fluorescently labeled CCNE peptide] (5FAM-PSGLL[pT]PPQ[pS]GKKQ-OH)	–	–	–	2.8 ± 1.6
